Experimental data: PMC9736855, “Discovery of 3-Amino-1H-pyrazole-Based Kinase Inhibitors to Illuminate the Understudied PCTAIRE Family” (International Journal of Molecular Sciences, 2022)

Tests used:
CDK16 = target: T1, CDK16 (Homo sapiens, UniProt Q00536); test: DSF; type: binding; settings: 10 μM compound
T1 construct: purchased in-house DSF panel (SGC Frankfurt)
From the text: (§1) To investigate the selectivity profile of the different series, a differential scanning fluorimetry (DSF) assay was used. This assay offers a rapid and sensitive screening method that determines the denaturation temperature of a protein in absence and presence of a compound. This assay format measures the fluorescence of a dye, which depends on the folding state of the protein. The difference between the melting temperature (ΔTm) in the absence and presence of the compound represents the binding strength to the protein.
(§2) Measurements were performed in duplicates.

CDK2 = target: T2, CDK2 (Homo sapiens, UniProt P24941); test: DSF; type: binding; settings: 10 μM compound
T2 construct: purchased in-house DSF panel (SGC Frankfurt)
From the text: as §1, §2

CDK16/Cyclin Y = target: T3, CDK16/Cyclin Y (Homo sapiens, UniProt Q00536); test: NanoBRET; type: cell-based; settings: Figure 7, 11-point dose-response in duplicates; read-out: NanoBRET EC50 ± SEM against CDK16
T3 construct: Full-length kinases were obtained as plasmids cloned in frame with a terminal NanoLuc-fusion; CS1810C178 (CCNY); host or cells: HEK293T
Description: Next, to specifically quantify the outcome of the cellular activity of the compounds, a NanoBRET cellular target engagement assay was performed. The determination of the cellular potency on CDK16 correlated well with the corresponding DSF assay data (Figure S2). […] As mentioned before, the exchange from a methyl ester to an iso-propyl or tert-butyl ester led to a higher stabilization of the kinase in the DSF assay, which correlated with an increase in cellular potency as determined in the NanoBRET assay. […] The number of potential off-targets was low with 1 and 2 kinases with ΔTm >5 °C (Figure 4), highlighting these inhibitors for more comprehensive selectivity studied within the CDK and particular the TAIRE subfamily.
The assay was performed as described previously. In brief: Full-length kinases were obtained as plasmids cloned in frame with a terminal NanoLuc-fusion (Promega, Madison, WI, USA), as specified in table (Table S6). Plasmids were transfected into HEK293T cells using FuGENE HD (Promega, E2312) and proteins were allowed to express for 20h. Serially diluted inhibitor and NanoBRET Kinase Tracer (Promega) at a concentration determined previously as the KD,app (Table S5) were pipetted into white 384-well plates (Greiner 781207) using an Echo acoustic dispenser (Labcyte, San Jose, CA, USA). The corresponding protein-transfected cells were added and reseeded at a density of 2.5 × 10^5 cells/mL after trypsinization and resuspending in Opti-MEM without phenol red (Life Technologies, Carlsbad, CA, USA). The system was allowed to equilibrate for 2 h at 37 °C/5% CO2 prior to BRET measurements. To measure BRET, NanoBRET NanoGlo Substrate + Extracellular NanoLuc Inhibitor (Promega, N2540) was added as per the manufacturer’s protocol, and filtered luminescence was measured on a PHERAstar plate reader (BMG Labtech, Ortenberg, Germany) equipped with a luminescence filter pair (450 nm BP filter (donor) and 610 nm LP filter (acceptor)). Competitive displacement data were then graphed using GraphPad Prism 9 software using a normalized 3-parameter curve fit with the following equation: Y = 100/(1 + 10^(X–LogEC50)).

GSK3B = GSK3B (Homo sapiens, UniProt P49841); test: DSF; type: binding; design: purchased in-house DSF panel (SGC Frankfurt); settings: 10 μM compound
From the text: as §1, §2

T3 sequence (Q00536 whole entry, the tested form may be a part): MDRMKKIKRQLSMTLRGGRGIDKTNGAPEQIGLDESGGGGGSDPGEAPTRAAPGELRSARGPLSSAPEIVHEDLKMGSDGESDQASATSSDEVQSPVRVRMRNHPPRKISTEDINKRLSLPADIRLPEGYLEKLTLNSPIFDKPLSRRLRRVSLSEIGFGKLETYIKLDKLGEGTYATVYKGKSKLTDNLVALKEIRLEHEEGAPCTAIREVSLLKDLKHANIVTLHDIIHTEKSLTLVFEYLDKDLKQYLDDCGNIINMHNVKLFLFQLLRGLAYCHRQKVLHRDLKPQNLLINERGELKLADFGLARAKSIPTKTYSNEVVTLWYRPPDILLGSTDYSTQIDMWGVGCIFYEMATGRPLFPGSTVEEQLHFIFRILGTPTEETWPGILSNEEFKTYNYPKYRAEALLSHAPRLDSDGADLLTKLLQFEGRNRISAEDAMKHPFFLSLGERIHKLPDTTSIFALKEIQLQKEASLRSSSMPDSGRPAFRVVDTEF
T3 sequence (Q8ND76 2-341 partner limits assumed): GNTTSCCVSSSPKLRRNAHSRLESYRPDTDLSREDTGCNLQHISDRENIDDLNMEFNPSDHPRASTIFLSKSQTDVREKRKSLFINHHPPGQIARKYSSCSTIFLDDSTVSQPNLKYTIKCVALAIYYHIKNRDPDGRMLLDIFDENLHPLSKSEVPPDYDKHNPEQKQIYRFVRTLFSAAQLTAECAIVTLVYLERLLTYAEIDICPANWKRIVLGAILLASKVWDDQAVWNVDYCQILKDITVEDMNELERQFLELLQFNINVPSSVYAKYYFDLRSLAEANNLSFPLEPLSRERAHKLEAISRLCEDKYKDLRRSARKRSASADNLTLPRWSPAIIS
T1 sequence (Q00536 163-478): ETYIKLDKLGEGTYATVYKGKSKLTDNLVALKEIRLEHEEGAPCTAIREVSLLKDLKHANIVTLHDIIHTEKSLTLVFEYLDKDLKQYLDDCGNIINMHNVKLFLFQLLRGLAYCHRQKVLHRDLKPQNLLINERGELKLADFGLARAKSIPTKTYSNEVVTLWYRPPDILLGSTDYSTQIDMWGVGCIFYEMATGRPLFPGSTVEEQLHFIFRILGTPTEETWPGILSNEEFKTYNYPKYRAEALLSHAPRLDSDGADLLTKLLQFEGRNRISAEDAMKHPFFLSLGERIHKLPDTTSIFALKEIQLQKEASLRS
GSK3B, sequence (P49841 35-386): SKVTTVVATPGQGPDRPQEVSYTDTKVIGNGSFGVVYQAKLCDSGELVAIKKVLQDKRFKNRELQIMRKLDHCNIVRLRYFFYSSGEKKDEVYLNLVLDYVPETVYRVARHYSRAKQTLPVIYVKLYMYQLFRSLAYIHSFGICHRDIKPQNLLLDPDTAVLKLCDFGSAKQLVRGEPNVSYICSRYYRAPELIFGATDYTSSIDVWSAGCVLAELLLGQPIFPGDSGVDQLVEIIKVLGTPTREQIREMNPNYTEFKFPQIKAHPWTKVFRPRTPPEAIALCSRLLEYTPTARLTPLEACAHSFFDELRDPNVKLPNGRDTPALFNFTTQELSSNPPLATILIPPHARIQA

Row | Compound | ΔTm at 10 µM (CDK16) [°C] | ΔTm at 10 µM (CDK2) [°C] | EC50 (CDK16/Cyclin Y) [nM] | ΔTm at 10 µM (GSK3B) [°C]
1 | COC(=O)c1cc(Nc2nc(Nc3ccc(CCNC(=O)OC(C)(C)C)cc3)ncc2Cl)[nH]n1 [22a, methyl 5-((2-((4-(2-((tert-butoxycarbonyl)amino)ethyl)phenyl)amino)-5-chloropyrimidin-4-yl)amino)-1H-pyrazole-3-carboxylate] | 0.3 ± 0.1 | 2 ± 0.3 | 1860 ± 276 | 3.3 ± 0.5
2 | COC(=O)c1cc(Nc2nc(NCCCCCCNC(=O)OC(C)(C)C)ncc2Cl)[nH]n1 [22e, methyl 5-((2-((6-((tert-butoxycarbonyl)amino)hexyl)amino)-5-chloropyrimidin-4-yl)amino)-1H-pyrazole-3-carboxylate] | 0.2 ± 0.3 | 0.7 | 12090 ± 65 | 2.9 ± 0.1
3 | Cc1cnc(Nc2cccc(CCNC(=O)OC(C)(C)C)c2)nc1Nc1cc(C2CC2)n[nH]1 [12b, tert-butyl 3-((4-((3-cyclopropyl-1H-pyrazol-5-yl)amino)-5-methylpyrimidin-2-yl)amino)-phenethylcarbamate] | 3.7 ± 0.1 | 4.7 | 1100 ± 44.5 | 5.1
4 | CNC(=O)c1cc(Nc2ccnc(NCCCCCNC(=O)OC(C)(C)C)n2)[nH]n1 [41b, tert-butyl (5-((4-((3-(methylcarbamoyl)-1H-pyrazol-5-yl)amino)pyrimidin-2-yl)amino)-pentyl)carbamate] | 1.5 ± 0.1 | 1.2 ± 0.2 | 2470 ± 248 | 1.3 ± 0.1
5 | CC(C)(C)OC(=O)NCCOCCNc1nccc(Nc2cc(C3CC3)n[nH]2)n1 [11d, tert-butyl (2-(2-((4-((3-cyclopropyl-1H-pyrazol-5-yl)amino)pyrimidin-2-yl)amino)ethoxy)-ethyl)carbamate] | 7.3 ± 0.1 | 6.3 ± 0.2 | 67 ± 1.3 | 5.9 ± 0.2
6 | CC(C)(C)OC(=O)NCCCCCCNc1nccc(Nc2cc(C3CC3)n[nH]2)n1 [11e, tert-butyl (6-((4-((3-cyclopropyl-1H-pyrazol-5-yl)amino)pyrimidin-2-yl)amino)hexyl)-carbamate] | 8.9 ± 0.3 | 11.2 ± 0.3 | 36 ± 1.2 | 6.8
7 | CC(C)c1cc(Nc2ccnc(Nc3ccc(CCNC(=O)OC(C)(C)C)cc3)n2)[nH]n1 [39a, tert-butyl 4-((4-((3-isopropyl-1H-pyrazol-5-yl)amino)pyrimidin-2-yl)amino)phenethyl-carbamate] | 7.9 ± 0.4 | 9.8 ± 1.3 | 70 ± 4.9 | 7 ± 0.1
8 | Cc1cnc(NCCCCCNC(=O)OC(C)(C)C)nc1Nc1cc(C2CC2)n[nH]1 [12c, tert-butyl (5-((4-((3-cyclopropyl-1H-pyrazol-5-yl)amino)-5-methylpyrimidin-2-yl)amino)-pentyl)carbamate] | 6.5 ± 0.1 | 7.2 ± 0.2 | 176 ± 3 | 6.1 ± 0.1
9 | Cc1cnc(Nc2ccc(CCNC(=O)OC(C)(C)C)cc2)nc1Nc1cc(C2CC2)n[nH]1 [12a, tert-butyl 4-((4-((3-cyclopropyl-1H-pyrazol-5-yl)amino)-5-methylpyrimidin-2-yl)amino)-phenethylcarbamate] | 6.2 ± 0.1 | 8.7 ± 0.1 | 172 ± 20.9 | 5.7 ± 0.2
10 | CC(=O)NCCCCCCNc1nccc(Nc2cc(C3CC3)n[nH]2)n1 [compound 15, N-(6-((4-((3-cyclopropyl-1H-pyrazol-5-yl)amino)pyrimidin-2-yl)amino)hexyl)acetamide] | 8.8 ± 0.1 | 11.3 | 100 ± 7 | 7.9 ± 0.1
11 | COC(=O)c1cc(Nc2ccnc(NCc3ccc(CNC(=O)OC(C)(C)C)cc3)n2)[nH]n1 [21g, methyl 5-((2-((4-(((tert-butoxycarbonyl)amino)methyl)benzyl)amino)pyrimidin-4-yl)amino)-1H-pyrazole-3-carboxylate] | 5.3 ± 0.1 | 3.3 ± 0.1 | 879 ± 5.5 | 7.7 ± 0.1
12 | CC(C)c1cc(Nc2ccnc(NCCCCCNC(=O)OC(C)(C)C)n2)[nH]n1 [39b, tert-butyl (5-((4-((3-isopropyl-1H-pyrazol-5-yl)amino)pyrimidin-2-yl)amino)pentyl)-carbamate] | 8.6 ± 0.1 | 9.5 ± 0.1 | 47 ± 4.1 | 6.2 ± 0.1
13 | CC(C)(C)OC(=O)NCCCCCNc1nccc(Nc2cc(C3CC3)[nH]n2)n1 [11c, tert-butyl (5-((4-((3-cyclopropyl-1H-pyrazol-5-yl)amino)pyrimidin-2-yl)amino)pentyl) carbamate] | 9.4 | 10.4 ± 0.3 | 33 ± 0.1 | 7.1 ± 0.2
14 | CC(C)(C)OC(=O)NCCc1cccc(Nc2nccc(Nc3cc(C4CC4)n[nH]3)n2)c1 [11b, tert-butyl 3-((4-((3-cyclopropyl-1H-pyrazol-5-yl)amino)pyrimidin-2-yl)amino)phenethyl-carbamate] | 6.3 ± 0.3 | 8.2 ± 0.1 | 124 ± 10.4 | 7.2 ± 0.2
15 | COC(=O)c1cc(Nc2nc(NCCOCCNC(=O)OC(C)(C)C)ncc2Cl)[nH]n1 [22d, methyl 5-((2-((2-(2-((tert-butoxycarbonyl)amino)ethoxy)ethyl)amino)-5-chloropyrimidin-4-yl)amino)-1H-pyrazole-3-carboxylate] | 0.2 ± 0.2 | 0.2 | 25000 ± 4220 | 2.1 ± 0.1
16 | COC(=O)c1cc(Nc2nc(Nc3cccc(CCNC(=O)OC(C)(C)C)c3)nc3ccccc23)[nH]n1 [23b, methyl 5-((2-((3-(2-((tert-butoxycarbonyl)amino)ethyl)phenyl)amino)quinazolin-4-yl)amino)-1H-pyrazole-3-carboxylate] | 0.2 ± 0.2 | 0.6 | 6820 ± 280 | 1.4 ± 0.3
17 | COC(=O)c1cc(Nc2ccnc(NCc3ccc(N)cc3)n2)n[nH]1 [compound 25, methyl 3-((2-((4-aminobenzyl)amino)pyrimidin-4-yl)amino)-1H-pyrazole-5-carboxylate] | 5.6 | 5.1 | 400 ± 30.6 | 10.3 ± 0.1
18 | COC(=O)c1cc(Nc2ccnc(NCCCCCNC(=O)OC(C)(C)C)n2)[nH]n1 [21c, methyl 5-((2-((5-((tert-butoxycarbonyl)amino)pentyl)amino)pyrimidin-4-yl)amino)-1H-pyrazole-3-carboxylate] | 8.5 ± 0.2 | 5.6 | 107 | 8.6
19 | CC(C)(C)OC(=O)NCCCCCNc1ncc(Cl)c(Nc2cc(C3CC3)n[nH]2)n1 [13c, tert-butyl (5-((5-chloro-4-((3-cyclopropyl-1H-pyrazol-5-yl)amino)pyrimidin-2-yl)amino)pentyl)carbamate] | 3.2 | 5.1 ± 0.3 | 914 ± 11 | 5.9 ± 0.3
20 | COC(=O)c1cc(Nc2ccnc(Nc3ccc(CCNC(=O)OC(C)(C)C)cc3)n2)[nH]n1 [21a, methyl 5-((2-((4-(2-((tert-butoxycarbonyl)amino)ethyl)phenyl)amino)pyrimidin-4-yl)amino)-1H-pyrazole-3-carboxylate] | 4.3 ± 0.4 | 3.1 ± 0.2 | 652 ± 15.6 | 7.8 ± 0.2
